Results: patent publication US20260265267A1, “NOVEL COMPOUNDS WITH MTORC2-INHIBITORY ACTIVITY AND USES THEREOF” (Aliad Biopharma, priority 2023, published 2026)

Experiments:
LC3-II = LC3-II formation as indicator of autophagy in HeLa cells (Western blot); format: cell-based, human; conditions: 9 hours; for activity at 40 µM: Homo sapiens, read-out: LC3-II (% control)
In short: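 HeLa cells were treated with compounds at 40 μM for 9 h, then lysed in RIPA buffer and analysed by Western blot with chemiluminescent detection. LC3-II signal normalized to pan-Akt and expressed as percent of the DMSO vehicle control.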

[1] = tested on: 5×FAD Alzheimer's disease model mice; experiment: Y-maze test in 5×FAD mice (short-term memory); format: in vivo
Method: (§1) In order to evaluate the efficacy of HN2210, HN2213, and HN2313 on Alzheimer's disease-related symptoms, specifically regarding 1) memory and cognitive impairment, 2) amyloid plaques, 3) neurofibrillary tangles (NFTs), and 4) brain inflammation, an in vivo efficacy assessment of HN2210, HN2213 and HN2313 was conducted using 5×FAD Alzheimer's disease model mice. The 5×FAD mice were purchased from Jackson Lab, USA (Cat #034840-JAX) and crossed once with C57bl6 mice to produce F1 heterozygous offspring (Het). The compound was administered via intraperitoneal injection to 6-month-old 5×FAD Het mice, followed by behavioral testing. The normal control mice, which were littermates of the 5×FAD Het mice, were aged to 6 months and received DMSO injection at the same volume.
Specifically, the Y-maze test was performed using a Y-shaped structure maze made of black acrylic with each arm at a […], and light and a camera were installed on the ceiling, and we measured the number of entries for white mice to freely enter each arm while the surroundings were covered with a curtain. This procedure was used to analyze short-term memory. In order to adapt mice to the environment, they were acclimated to the experimental space for 30 minutes. The mice were placed at one end of the maze and allowed to move freely for 12 minutes. The test was conducted with observation periods divided into 8, 10, and 12 minutes. When all four paws of a mice entered an arm, it was considered as fully entered, and the number of entries into each arm without repetition was recorded. The number of entries into each of the three different arms was divided by the total number of entries into all arms minus 2, and expressed as a percentage.

[2] = tested on: tau aggregates in the brain of 5×FAD mice; experiment: Tau aggregate removal in the brain of 5×FAD mice (AT8 antibody staining); format: in vivo; conditions: 5 mg/kg, 14 days
Method: as §1
In order to assess the neurofibrillary tangle removal effect of HN2210, HN2213, and HN2313 compounds in the brains of Alzheimer's disease model mice, the following test was conducted using 5×FAD-DMSO mice without compound treatment, 5×FAD mice treated with HN2210, HN2213, or HN2313 compounds, and normal mice as controls.
Specifically, AT8 antibody stains hyperphosphorylated Tau protein that constitutes tau aggregates. Therefore, tau aggregates formed in the hippocampus of 5×FAD mouse can be measured using immunostaining with the AT8 antibody. Brain slices were triple-stained with the AT8 antibody, MAP2 which is a neuronal marker, and DAPI to label nuclei, and the dentate gyrus region of the hippocampus was observed under a confocal scanning microscope.

[3] = 5 mg/kg, intraperitoneal, once daily, 14 days (FIG. 5)

O=C1c2cc(F)c(N3CCOCC3)cc2COc2cc3c(cc21)OCO3 [HN2210, 8-(morpholino)-9-fluoro[2]benzoxepino[3,4-f]-1,3-benzodioxol-11(6H)-one]
increase in LC3-II (LC3-II; 40 μM): 22%
activity at 40 µM (LC3-II): 108%
Y-maze % alternation, % of the normal control level ([1]; 0.2 mg/kg, 14 days (FIG. 8a)): approximately 85%
Y-maze % alternation, increase compared to 5×FAD-DMSO mice ([1]; 0.2 mg/kg, 14 days (FIG. 8a)): 1.21 fold
Y-maze % alternation, % of the normal control level ([1]; 1 mg/kg, 14 days (FIG. 8a)): ~82%
Y-maze % alternation, increase compared to 5×FAD-DMSO mice ([1]; 1 mg/kg, 14 days (FIG. 8a)): 1.17 fold
Y-maze % alternation, % of the normal control level ([1]; 5 mg/kg, 14 days (FIG. 8a)): ~93%
Y-maze % alternation, increase compared to 5×FAD-DMSO mice ([1]; 5 mg/kg, 14 days (FIG. 8a)): 1.32 fold
Y-maze % alternation, % of the normal control level [1, 3]: 93%
Y-maze % alternation, increase compared to 5×FAD-DMSO mice [1, 3]: 1.25 fold
reduction of AT8 antibody signals in the dentate gyrus compared to the 5×FAD-DMSO group [2]: 61%

O=C1c2cc(F)c(NC3CCCC3)cc2COc2cc3c(cc21)OCO3 [HN2313, 8-(cyclopentylamino)-9-fluoro-[1,3]dioxolo[4′,5′:4,5]benzo[1,2-b]benzo[e]oxepin-11(6H)-one]
increase in LC3-II (LC3-II; 40 μM): 62%
activity at 40 µM (LC3-II): 162%
Y-maze % alternation, % of the normal control level [1, 3]: 90%
Y-maze % alternation, increase compared to 5×FAD-DMSO mice [1, 3]: 1.2 fold
reduction of AT8 antibody signals in the dentate gyrus compared to the 5×FAD-DMSO group [2]: 49%

O=C1c2cc(F)c(NCc3ccccc3)cc2COc2cc3c(cc21)OCO3 [HN2213, 8-(benzylamino)-9-fluoro[2]benzoxepino[3,4-f]-1,3-benzodioxol-11(6H)-one]
decrease in LC3-II (LC3-II; 40 μM): 33%
activity at 40 µM (LC3-II): 67%
Y-maze % alternation, % of the normal control level [1, 3]: 97%
Y-maze % alternation, increase compared to 5×FAD-DMSO mice [1, 3]: 1.3 fold
reduction of AT8 antibody signals in the dentate gyrus compared to the 5×FAD-DMSO group [2]: 59%
